Key:
[1] = target: T1, juvenile hormone-binding protein (JHBP) (Bombyx mori, UniProt Q9U556); assay: crystal structure ([…] Å); competition with 3H-JH III (charcoal assay)
T1 construct: gene hJHBP; recombinant mature JHBP

[2] = target: T1, juvenile hormone-binding protein (JHBP); assay: radioligand competition with 3H-JH III (dextran-coated charcoal)

Row | IC50 [1] [µM] | SMILES | IC50 [2] [µM]
1 | 160 | CC(O)CC(C)(C)O (racemic) [MPD, 2-methyl-2,4-pentanediol] | –
2 | – | COC(C)(C)CCC[C@H](C)C/C=C/C(C)=C/C(=O)OC(C)C (racemic) [methoprene] | 35

From publication PMC3577830, “Crystal Structure of Silkworm Bombyx mori JHBP in Complex With 2-Methyl-2,4-Pentanediol: Plasticity of JH-Binding Pocket and Ligand-Induced Conformational Change of the Second Cavity in JHBP” (PLoS ONE, 2013)
